{
  "source": "paper PMC5858991",
  "about": "(Neuropharmacology, 2018)",
  "key": {"σ1R [1]": {"molecular_target": "σ1R (Cavia porcellus, UniProt Q60492)", "assay": "σ1R radioligand binding in guinea pig cortex with [3H]-"}, "σ1R homomer": {"molecular_target": "σ1R homomer (Homo sapiens, UniProt Q99720)", "assay": "Drug induced σ1R homomer BRET", "type": "cell-based", "details": "for effect on σ1R homomer BRET signaling: 2.5-60 min"}, "[2]": {"assay": "Experimentally determined pKa"}, "σ1R [3]": {"molecular_target": "T1, σ1R (Homo sapiens, UniProt Q99720)", "type": "binding", "details": "read-out: Ki ± SEM; competition vs. 2 nM [3H]-haloperidol, HEK 293T membrane"}, "σ1R [4]": {"molecular_target": "T1, σ1R", "type": "binding", "details": "for displacement kinetics of [3H]-(+)-pentazocine: membrane preparation and whole cells, 15 min of incubation"}, "σ1R [5]": {"molecular_target": "T1, σ1R", "type": "binding", "details": "HEK 293T membrane; for Ki: read-out: Ki ± SEM, competition vs. 3 nM [3H]-(+)-pentazocine"}, "[6]": {"details": "read-out: Ki ± SEM, competition vs. 3 nM [3H]-(+)-pentazocine, guinea pig cortex"}, "[7]": {"details": "single-ligand mode, σ1-NL:σ1-VN"}, "[8]": {"details": "1 μM haloperidol or 1 μM PD144418 added prior to tested ligand"}},
  "note": "Where “and” joins values, the source holds several entries; their conditions need not be identical. Equal entries are not always repeated. Where two headings read alike, the source gives them in different places.",
  "data": [
    {"compound": "c1ccc(CCCCN2CCC(c3ccccc3)CC2)cc1", "note": "[4-PPBP]", "values": [
      {"measurement": "Ki", "setting": "σ1R [1]; [6]", "result": "0.857 ± 0.153", "unit": "nM"},
      {"measurement": "effect on σ1R homomer BRET in competition mode", "setting": "σ1R homomer; in the presence of 1 μM PD144418", "result": "positive BRET signals were induced"},
      {"measurement": "effect on σ1R homomer BRET signaling", "setting": "σ1R homomer; [7]", "result": "positive dose-dependent induction of BRET signaling"}
    ]},
    {"compound": "CC(C)=CCN1CC[C@]2(C)c3cc(O)ccc3C[C@H]1[C@H]2C", "note": "[(+)-pentazocine]", "values": [
      {"measurement": "pKa", "setting": "[2]", "result": "9.2 to 9.3"}
    ]},
    {"compound": "CCCCN1[C@@H]2CC[C@H]1CC(OC(c1ccc(F)cc1)c1ccc(F)cc1)C2", "note": "(some centres unmarked) [JHW007]", "values": [
      {"measurement": "Ki", "setting": "σ1R [3]", "result": "1.85 ± 0.0579", "unit": "nM"},
      {"measurement": "Ki", "setting": "σ1R [1]; [6]", "result": "1.48 ± 0.289", "unit": "nM"},
      {"measurement": "effect on σ1R homomer BRET in competition mode", "setting": "σ1R homomer; [8]", "result": "dose-dependent effects"},
      {"measurement": "effect on σ1R homomer BRET signaling", "setting": "σ1R homomer; [7]", "result": "no detectable effects on BRET signaling"},
      {"measurement": "displacement kinetics of [3H]-(+)-pentazocine", "setting": "σ1R [4]", "result": "immediate displacement"},
      {"measurement": "Ki", "setting": "σ1R [5]", "result": "0.554 ± 0.172", "unit": "nM"}
    ]},
    {"compound": "CCCN(CCC)CCc1ccc(OC)c(OCCc2ccccc2)c1", "note": "[NE-100]", "values": [
      {"measurement": "Ki", "setting": "σ1R [1]; [6]", "result": "1.14 ± 0.283", "unit": "nM"},
      {"measurement": "effect on σ1R homomer BRET in competition mode", "setting": "σ1R homomer; [8]", "result": "dose-dependent effects"},
      {"measurement": "effect on σ1R homomer BRET signaling", "setting": "σ1R homomer; [7]", "result": "no detectable effects on BRET signaling"},
      {"measurement": "displacement kinetics of [3H]-(+)-pentazocine", "setting": "σ1R [4]", "result": "immediate displacement"}
    ]},
    {"compound": "CCCN1CCC=C(c2cc(-c3ccc(C)cc3)no2)C1", "note": "[PD144418]", "values": [
      {"measurement": "Ki", "setting": "σ1R [3]", "result": "2.67 ± 0.578", "unit": "nM"},
      {"measurement": "Ki", "setting": "σ1R [1]; [6]", "result": "0.842 ± 0.307", "unit": "nM"},
      {"measurement": "Emax (basal subtracted BRET change)", "setting": "σ1R homomer; [7]", "result": "~0.02"},
      {"measurement": "effect on σ1R homomer BRET signaling", "setting": "σ1R homomer; [7]", "result": "positive dose-dependent induction of BRET signaling"},
      {"measurement": "Ki", "setting": "σ1R [5]", "result": "0.894 ± 0.11", "unit": "nM"}
    ]},
    {"compound": "O=C(OCCN1CCOCC1)C1(c2ccccc2)CCCCC1", "note": "[PRE-084, 2-(4-morpholinethyl)1 phenylcyclohexanecarboxylate]", "values": [
      {"measurement": "effect on σ1R homomer BRET in competition mode", "setting": "σ1R homomer; [8]", "result": "dose-dependent effects"},
      {"measurement": "effect on σ1R homomer BRET signaling", "setting": "σ1R homomer; [7]", "result": "no detectable effects on BRET signaling"},
      {"measurement": "experimentally determined pKa", "setting": "[2]", "result": 6.2},
      {"measurement": "displacement of [3H]-(+)-pentazocine", "setting": "σ1R [4]; membrane preparation, 15 and 120 min", "result": "92.4–96.1%"},
      {"measurement": "displacement of [3H]-(+)-pentazocine", "setting": "σ1R [4]; whole cell assay, 15 min", "result": 60.6, "unit": "%"},
      {"measurement": "displacement of [3H]-(+)-pentazocine", "setting": "σ1R [4]; whole cell assay, 120 min", "result": "below 76.1%"}
    ]},
    {"compound": "CC(C)=CCN1CC[C@]2(C)c3cc(O)ccc3C[C@H]1[C@H]2C", "note": "[[^3H]-(+)-pentazocine]", "values": [
      {"measurement": "Bmax ± SEM", "setting": "σ1R [5]; [3H]-(+)-pentazocine", "result": "2080 fmol/mg and 2080 ± 163 fmol/mg"}
    ]},
    {"compound": "COC(=O)[C@H]1[C@@H](OC(=O)c2ccccc2)C[C@@H]2CC[C@H]1N2C", "note": "[cocaine]", "values": [
      {"measurement": "Ki", "setting": "σ1R [1]", "result": "3710 ± 1170", "unit": "nM"},
      {"measurement": "effect on σ1R homomer BRET in competition mode", "setting": "σ1R homomer; [8]", "result": "dose-dependent effects"},
      {"measurement": "effect on σ1R homomer BRET signaling", "setting": "σ1R homomer; [7]", "result": "no detectable effects on BRET signaling"}
    ]}
  ]
}
